Laboratory results reported in ChEMBL document CHEMBL1130656, “Thyrotropin releasing hormone analogs: a building block approach to the construction of tetracyclic peptidomimetics” (Bioorg Med Chem Lett, 1998).
Non-standard residues stand in square brackets, D forms with d. Residues, ends and D or L forms follow the SMILES beside them. Cha = N[C@@H](CC1CCCCC1)C(=O)O; pGlu = O=C1CC[C@@H](C(=O)O)N1

Assays:
[1] = target: T1, Thyrotropin-releasing hormone receptor (Mus musculus, UniProt P21761); assay: Ability to bind thyroliberin endocrine receptor (TRH-R) using AtT-20 mouse pituitary tumor cells.
T1 sequence (P21761 whole entry): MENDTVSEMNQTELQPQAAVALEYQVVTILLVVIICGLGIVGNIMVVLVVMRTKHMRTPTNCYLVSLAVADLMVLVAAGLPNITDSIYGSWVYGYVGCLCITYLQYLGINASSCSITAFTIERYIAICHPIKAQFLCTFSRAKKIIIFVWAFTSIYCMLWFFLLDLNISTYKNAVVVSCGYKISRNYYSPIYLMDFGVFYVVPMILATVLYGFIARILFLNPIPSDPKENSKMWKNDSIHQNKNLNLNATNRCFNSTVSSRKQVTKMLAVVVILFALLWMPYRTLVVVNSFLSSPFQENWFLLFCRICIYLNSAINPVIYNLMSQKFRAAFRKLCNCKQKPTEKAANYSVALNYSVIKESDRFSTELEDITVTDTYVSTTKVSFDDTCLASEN

[2] = target: T1, Thyrotropin-releasing hormone receptor; assay: Ability to activate thyroliberin endocrine receptor (TRH-R) using AtT-20 mouse pituitary tumor cells prelabelled with myo-[3H] inositol

Ki [1] [µM]	EC50 [2] [µM]	SMILES
6.5	0.43	NC(=O)[C@@H]1CCCN1C(=O)[C@H](CC1CCCCC1)NC(=O)[C@@H]1CCC(=O)N1 ([pGlu]-[Cha]-Pro-NH2)
1.5	1.8	NC(=O)[C@@H]1CCC2CC(C3CCCCC3)=C(N3CC[C@]4(CCC(=O)N4)C3=O)C(=O)N21 (single isomer, unassigned; 2a)
36	18	NC(=O)[C@@H]1CCC2CC(C3CCCCC3)=C(N3CC[C@]4(CCC(=O)N4)C3=O)C(=O)N21 (single isomer, unassigned; 2b)
0.023	0.00049	NC(=O)[C@@H]1CCCN1C(=O)[C@H](Cc1cnc[nH]1)NC(=O)[C@@H]1CCC(=O)N1 [PROTIRELIN]
